pIC50: −log10 of the molar value.

The first experiment concerns OPN production in RPMI8226 cells. Briefly: OPN production inhibiting effect in cultured RPMI8226 cells (ELISA of culture supernatant). To be noted: Homo sapiens, RPMI-8226, 72 h; RPMI8226 myeloma cells; 3 days prophase + 3 days anaphase culture; 0.1-10 μmol/L; OPN in culture supernatant by ELISA; logistic curve; read-out: IC50 (OPN production inhibition). The class given is cell-based, human. Here is the method:
Compounds 1 to 6 were separately dissolved in dimethylsulfoxide (DMSO) to prepare 20 mmol/L solutions of the respective compounds. Aliquots of those solutions were diluted further to prepare 6, 2, 0.6 and 0.2 mmol/L solutions of the respective compounds. The DMSO solutions of the respective compounds (1 to 6) (concentrations: 0.2 to 20 mmol/L) and DMSO (as a compound non-addition group) were separately diluted 1,000-fold with a culture medium (10% fetal-bovine-serum (FBS)-added RPMI-1640 medium) to prepare 0 (non-addition group), 0.2, 0.6, 2, 6 and 20 μmol/L solutions of the respective compounds (1-6).
3) Study on the OPN Production Inhibiting Effect of the Individual Compounds in RPMI8226 Cells
A 2×10^5 cells/mL cell suspension of RPMI8226 cells was prepared, and was seeded 2 mL by 2 mL per well on a 6-well plates. To the wells, the individual solutions prepared in the procedure 2) (the solutions of Compounds 1 to 6, having concentrations of 0 (non-addition group), 0.2, 0.6, 2, 6, and 20 μmol/L, respectively) were added 2 mL by 2 mL per well, followed by mixing to bring the final concentrations of Compound 1-6 in the individual wells to 0 (non-added group), 0.1, 0.3, 1, 3 and 10 μmol/L. The cells of those conditions were cultured as prophase culture at 37° C. for 3 days in the presence of 5% CO2.
After the above-described culture, the cells in the respective wells were collected, and were counted well by well. Those cells were again suspended separately in aliquots of a 2×10^5 cells/mL suspension, and the cells of the respective conditions were each seeded 0.5 mL by 0.5 mL per well in two wells. To the wells of the respective conditions, individual solutions prepared at the same concentrations as those at the time of the culture in a similar manner as in the prophase culture (individual solutions of Compounds 1 to 6, having concentrations of […], respectively) were added 0.5 mL by 0.5 mL per sell to the individual wells. After mixing, the cells were cultured as anaphase culture at 37° C. for 3 days in the presence of 5% CO2.
Subsequent to the completion of the anaphase culture, culture supernatants were separately collected from the respective wells, and the OPN concentrations in the individual culture supernatants were quantitated with an absorptiometer by ELISA (Human Osteopontin Measurement Kit IBL; IBL Co., Ltd.).
Using the SAS Preclinical Package, Version 5.0, the measurement values were analyzed by the following procedure. Described specifically, the concentrations were logarithmically converted (the compound non-addition group (0 μmol/L) was replaced by 1 pmol/L), and using the measurement values (6 concentrations, 2 measurement values per concentration, 12 measurement values in total), plotting into a logistic curve was conducted. From the curve, concentrations (IC50) which give 50% reactivity were calculated.
For orientation: An ELISA detects its analyte on a solid surface through an enzyme-linked reagent.
By pIC50 is commonly meant the IC50 on a negative log10 scale, so that one unit is a factor of ten. `CSc1ccc(-c2nn(Cc3ccccn3)c(=S)cc2-c2ccc(Cl)cc2)cc1` [Compound 1, 5-(4-chlorophenyl)-6-[4-(methylthio)phenyl]-2-(2-pyridylmethyl)-2H-pyridazine-3-thione methanesulfonate]: the pIC50 was 5.68.

Consider `CSc1ccc(-c2nn(Cc3cccnc3)c(=O)cc2-c2ccc(Cl)cc2)cc1` [Compound 2, 5-(4-chlorophenyl)-6-[4-(methylthio)phenyl]-2-(3-pyridylmethyl)-2H-pyridazin-3-one methanesulfonate], for which the pIC50 was 5.54.

Consider `COc1ccc(-c2cc(=O)n(CC=Cc3ccc(Cl)cc3)nc2-c2ccc(OC)cc2)cc1` [Compound 3, 5,6-bis(4-methoxyphenyl)-2-(4-chlorocinnamyl)-2H-pyridazin-3-one], for which the pIC50 was 5.56.

On to `CSc1ccc(-c2nn(Cc3ccccc3)c(=O)cc2-c2ccc(Cl)cc2)cc1` [Compound 4, 2-benzyl-5-(4-chlorophenyl)-6-[4-(methylthio)phenyl]-2H-pyridazin-3-one], for which the pIC50 is 5.59.

For `CCn1nc(-c2ccc(OC)cc2)c(-c2ccc(OC)cc2)cc1=O` [Compound 6, 5,6-bis(4-methoxyphenyl)-2-ethyl-2H-pyridazin-3-one], the pIC50 was 5.95.

Still in this experiment, the particulars now being: RPMI8226 myeloma cells; 3 days prophase + 3 days anaphase culture; 0.1-10 μmol/L; OPN in culture supernatant by ELISA; logistic curve; read-out: IC50 (OPN production inhibition).
As for `COc1ccc(-c2nn(Cc3ccc(Cl)cc3)c(=O)cc2-c2ccncc2)cc1` [Compound 5], the pIC50 is 5.62.
